Reference: ChEMBL document CHEMBL1151654, “Antineoplastic and piscicidal 1-alkyldaphnane orthoesters from Pimelea species” (J Nat Prod, 1985)

Experiments:
[1] = system: Gambusia affinis; experiment: Toxicity against Gambusia affinis at 30 to 60 ug/L within 24 hrs; type: organism-based; conditions: in vivo
[2] = system: P388; experiment: In vivo antitumor activity against mouse P388 cells at 100 ug/kg relative to control; type: functional
[3] = system: P388; experiment: In vivo antitumor activity against mouse P388 cells at 300 ug/kg relative to control; type: functional

SMILES	Activity [1]	T/C [2]	T/C [3]
C=C1C(=O)O[C@H]2C[C@@H](C)[C@@H]3C=CC(=O)[C@@]3(C)[C@H](OC(C)=O)[C@H]12 [LINIFOLIN A]	Toxic	107%	–
C=C(C)[C@@]12C[C@@H](COC(=O)c3ccccc3)[C@@]34OC5(O[C@@H]1[C@@H]3[C@@H]1O[C@]1(CO)[C@@H](O)[C@@]1(O)[C@H]4[C@H]([C@H](C)[C@@H]1OC(=O)c1ccc(OC(C)=O)cc1)[C@H](C)CCCCCC[C@H]5O)O2 [SIMPLEXIMACRIN]	Toxic	–	–
C=C(C)[C@@]12C[C@@H](C)[C@@]34OC5(CCCCCCC[C@@H](C)[C@H]6[C@H](C)[C@H](OC(=O)c7ccccc7)[C@@](O)([C@H](O)[C@@]7(CO)O[C@H]7[C@H]3[C@H]1O5)[C@@H]64)O2 [PIMELEA FACTOR P3]	Toxic	–	164%
C=C(C)[C@]12C[C@@H](C)[C@@]34OC5(CCCCCCC[C@H](C)[C@H]6[C@H](C)[C@H](OC(=O)c7ccccc7)[C@@](O)([C@H](O)[C@@]7(CO)O[C@H]7[C@H]3[C@H]1O5)[C@@H]64)O2 [PIMELEA FACTOR P2]	Toxic	–	–
C=C(C)[C@@]12C[C@@H](C)[C@@]34OC5(O[C@@H]1[C@@H]3[C@@H]1O[C@]1(CO)[C@@H](O)[C@@]1(O)[C@H]4[C@H]([C@H](C)[C@@H]1OC(=O)c1ccccc1)[C@@H](C)CCCCCC[C@H]5O)O2 [LINIMACRIN C]	Toxic	–	–
C=C(C)[C@@]12C[C@@H](C)[C@@]34OC5(O[C@@H]1[C@@H]3[C@@H]1O[C@]1(CO)[C@@H](O)[C@@]1(O)[C@H]4[C@H]([C@H](C)[C@@H]1OC(=O)c1ccccc1)[C@H](C)CCCCCC[C@H]5O)O2 [KRAUSSIANIN]	Toxic	–	–
C=C(C)[C@]12OC34CCCCCCC[C@@H](C)[C@H]5[C@H](C)[C@H](OC(=O)c6ccccc6)[C@@]6(O)[C@H](O)[C@@]7(CO)O[C@H]7[C@@H]([C@H]1O3)[C@](O4)([C@H](C)[C@H]2OC(C)=O)[C@H]56 [LINIMACRIN D]	Toxic	–	132%
C=C(C)[C@@]12C[C@@H](COC(=O)c3ccccc3)[C@@]34OC5(O[C@@H]1[C@@H]3[C@@H]1O[C@]1(CO)[C@@H](O)[C@@]1(O)[C@H]4[C@H]([C@H](C)[C@@H]1OC(=O)c1ccccc1)[C@H](C)CCCCCC[C@H]5O)O2 [GNIDIMACRIN]	Toxic	–	–
